According to ChEMBL document CHEMBL5042549, “Discovery of Inhibitors of the Lipopolysaccharide Transporter MsbA: From a Screening Hit to Potent Wild-Type Gram-Negative Activity” (J Med Chem, 2022):
In brackets after ≈: the same amount, converted by molar mass.

Experiments:
[1] = Lipophilicity, logD of compound by shake flask method; assay type: physicochemical; conditions: octanol/water
[2] = Inhibition of Escherichia coli MsbA preincubated for 10 mins followed by ATP addition and incubated for 1 hr by fluorescence polarization assay
[3] = system: Escherichia coli; experiment: Antibacterial activity against wild type Escherichia coli CFT073 (ATCC 700928) assessed as bacterial growth by broth microdilution assay; assay type: functional
[4] = system: Escherichia coli; experiment: Antibacterial activity against wild type Escherichia coli MG1655 carrying lptD (imp4213) assessed as bacterial growth inhibition by broth microdilution assay; assay type: functional

SMILES	logD [1]	IC50 [2]	MIC [3]	MIC [4]
C[C@H](Oc1cc(CO)c2ncc(/C=C/C(=O)O)c(C3CC3)c2c1)c1c(Cl)ccc(F)c1Cl	2.9	10 nM	> 100 µM	
C[C@H](Oc1ccc2ncc(/C=C/C(=O)NC(CC(=O)O)CC(=O)O)c(C3CC3)c2c1)c1c(Cl)ccc(F)c1Cl	0.4	9 nM	> 100 µM	
Cc1cnn(C)c1[C@H](C)Oc1ccc2ncc(/C=C/C(=O)O)c(C3CC3)c2c1	0.9	> 10000 nM	> 100 µM	
C[C@H](Oc1ccc2ncc(S(=O)(=O)CC(=O)O)c(C3CC3)c2c1)c1c(Cl)ccc(F)c1Cl	2.5	78 nM	> 100 µM	
Cc1c(/C=C/C(=O)O)ccc2ccc(O[C@@H](C)c3c(Cl)ccc(F)c3Cl)cc12	4.5	32 nM	> 100 µM	
O=C(O)/C=C/c1cnc2ccc(O[C@@H](CO)c3c(Cl)cccc3Cl)cc2c1C1CC1	2	550 nM	> 100 µM	
CC(Oc1ccc2ncc(/C=C/C(=O)O)cc2c1)C1CCCCC1 (stereo unspecified)	3	39000 nM		
C[C@H](Oc1ccnc(C2CC2)n1)c1c(Cl)ccc(F)c1Cl	4.2	450 nM	> 100 µM	> 100 µM
C[C@H](Oc1ccc2ncc(/C=C/c3nn[nH]n3)c(C3CC3)c2c1)c1c(Cl)ccc(F)c1Cl	3.7	3 nM	12 µM	
C[C@H](Oc1ccc2c(c1)CN(CCC(=O)O)CC2)c1c(Cl)ccc(F)c1Cl		> 50000 nM	> 100 µM	
C[C@H](Oc1ccc2ncc(/C=C/C(=O)O)c(C(F)F)c2c1)c1c(Cl)ccc(F)c1Cl	3.1	8 nM	25 µM	
C[C@H](Oc1ccc2ncc(/C=C/C(=O)NS(C)(=O)=O)c(C3CC3)c2c1)c1c(Cl)cccc1Cl	2.9	2 nM	35 µM	
C[C@H](Oc1ccc2ncc(/C=C/C(=O)O)c(N(C)C)c2c1)c1c(Cl)ccc(F)c1Cl	3.6	290 nM	> 100 µM	
C[C@H](Oc1nccc(N(c2nc(C(=O)O)cs2)C2CC2)n1)c1c(Cl)ccc(F)c1Cl	2.6	46 nM	> 100 µM	
C[C@H](Oc1cnc2cnc(/C=C/C(=O)O)c(C3CC3)c2c1)c1c(Cl)cccc1Cl		12 nM	> 100 µM	
C[C@H](Oc1ccnc(C2CC2)c1)c1c(Cl)ccc(F)c1Cl	4.3	3400 nM	> 100 µM	> 100 µM
C[C@H](Oc1ccc2ncc(/C=C/C(N)=O)c(C3CC3)c2c1)c1c(Cl)ccc(F)c1Cl	> 5.5	7 nM	> 100 µM	
C[C@H](Oc1ccc(NC(=O)CC(=O)O)c(C2CC2)n1)c1c(Cl)ccc(F)c1Cl	1.4	12 nM	> 100 µM	31 µM (≈ 13.2 µg/mL)
C[C@H](Oc1ccc(NC(=O)CC(=O)O)c(C2CC2)c1)c1c(Cl)ccc(F)c1Cl	1.9	60 nM	> 100 µM	71 µM (≈ 30.3 µg/mL)
C[C@H](Oc1ccc(/C=C/C(=O)O)cc1)c1c(Cl)ccc(F)c1Cl	2.8	5800 nM	> 100 µM	> 100 µM
C[C@H](Oc1ccc(NC(=O)CC(N)=O)c(C2CC2)n1)c1c(Cl)ccc(F)c1Cl	3.7	27 nM	> 100 µM	12 µM (≈ 5.12 µg/mL)
C[C@H](Oc1ccc2ncc(/C=C/C(=O)N3CC[C@@H](N)[C@H](C(=O)O)C3)c(C3CC3)c2c1)c1c(Cl)ccc(F)c1Cl (mixture of isomers)	3.1	5 nM	> 100 µM	
C[C@H](Oc1cc(B(O)O)c2ncc(/C=C/C(=O)O)c(C3CC3)c2c1)c1c(Cl)ccc(F)c1Cl		150 nM	> 100 µM	

SMILES	logD [1]	IC50 [2]	MIC [3]	MIC [4]
C[C@H](Oc1ccc2ncc(/C=C/C(=O)O)c(C3CC3)c2c1)c1c(Cl)ccc(N)c1Cl	2.8	14 nM	63 µM	
C[C@H](Oc1ccc2ncc(/C=C/S(=O)(=O)O)c(C3CC3)c2c1)c1c(Cl)ccc(F)c1Cl	2.5	14 nM	> 100 µM	
C[C@H](Oc1ccc2ncc(/C=C/C(=O)O)c(C#N)c2c1)c1c(Cl)ccc(F)c1Cl	2.3	110 nM	> 100 µM	
CC(Oc1ccc2ncc(/C=C/C(=O)O)c(C3CC3)c2c1)c1c(Cl)cccc1C#N (stereo unspecified)	2.2	24 nM	> 100 µM	
C[C@H](Oc1ccc2ncc(-c3ccn(CCC(=O)O)n3)c(C3CC3)c2c1)c1c(Cl)cccc1Cl	2.7	6 nM	> 100 µM	
C[C@H](Oc1ccc2nnc(/C=C/C(=O)O)c(C3CC3)c2c1)c1c(Cl)ccc(F)c1Cl	3.2	20 nM	> 100 µM	
C[C@H](Oc1ccc2ncc(/C=C/C(=O)O)c(-n3ccnc3)c2c1)c1c(Cl)ccc(F)c1Cl	2	2200 nM	> 100 µM	
CC(C)Oc1ccc2ncc(/C=C/C(=O)O)c(C3CC3)c2c1		> 10000 nM	> 100 µM	
C[C@H](Oc1ccc2ncc(/C=C/C(=O)O)c(C3CC3)c2c1)c1c(Cl)ccc(F)c1Cl	4.1	4 nM	79 µM	
Cc1c(/C=C/C(=O)O)cnc2ccc(O[C@@H](C)c3c(Cl)ccc(F)c3Cl)cc12	3	20 nM	> 100 µM	
C[C@H](Oc1ccc2ncc(/C=C/C(=O)O)cc2c1)c1c(Cl)ccc(F)c1Cl	2.5	140 nM	> 100 µM	
C[C@H](Oc1ccc2ncc(CCC(=O)O)c(C3CC3)c2c1)c1c(Cl)ccc(F)c1Cl	4.1	7 nM	> 100 µM	
Cc1cc(O[C@@H](C)c2c(Cl)ccc(F)c2Cl)ccc1/C=C/C(=O)O	3.2	2200 nM	> 100 µM	> 100 µM
C[C@H](Oc1ccc2ncc(/C=C/C(=O)O)c(O)c2c1)c1c(Cl)ccc(F)c1Cl	1.9	5000 nM	> 100 µM	
C[C@H](Oc1cc(CC#N)c2ncc(/C=C/C(=O)O)c(C3CC3)c2c1)c1c(Cl)ccc(F)c1Cl	2.8	20 nM	79 µM	
C[C@H](Oc1ccc2c(=O)nc(/C=C/C(=O)O)n(C3CC3)c2c1)c1c(Cl)ccc(F)c1Cl		7200 nM	> 100 µM	
C[C@H](Oc1ccc2ncc(/C=C/C(=O)O)c(C3CC3)c2c1)c1c(Cl)cccc1Cl	3.7	2 nM	30 µM	
C[C@H](Oc1ccc2ncc(/C=C/C(=O)O)c(C3CC3)c2c1)c1c(Cl)ccnc1Cl	2.3	18 nM	> 100 µM	
C[C@H](Oc1ccc2ncc(O)c(C3CC3)c2c1)c1c(Cl)ccc(F)c1Cl		42 nM	> 100 µM	
C[C@H](Oc1ccc2ncc(/C=C/C(=O)O)c(C3COC3)c2c1)c1c(Cl)ccc(F)c1Cl		120 nM	> 100 µM	
C[C@H](Oc1ccc2c(c1)c(C1CC1)c(/C=C/C(=O)O)c[n+]2[O-])c1c(Cl)ccc(F)c1Cl	1.7	13 nM	> 100 µM	
C[C@H](Oc1ccc2nc(OCCN)c(CCC(=O)O)c(C3CC3)c2c1)c1c(Cl)ccc(F)c1Cl	3.8	32 nM	> 100 µM	
C[C@H](Oc1ccc2ncc(/C=C/C(=O)O)c(CF)c2c1)c1c(Cl)ccc(F)c1Cl		25 nM	> 100 µM	
